The text below walks through data of publication PMC12337082 (Journal of Biochemical and Molecular Toxicology, 2025).

The subject of data set [1] is MCF‐7. The note with it: MCF‐7, 24 h, monolayer cultures, ref Huang et al. (2017) [64], cited from earlier work.
Data set [2] has as its system MDA‐MB‐231. As to conditions: MDA‐MB‐231, 24 h, monolayer cultures, ref Huang et al. (2017) [64], cited from earlier work.
Data set [3] concerns cancer cell proliferation. Details: method as in PMID 27074576. As to conditions: read-out: Effective range of cytotoxicity IC50 values in inhibiting cancer cell proliferation; cited from earlier work.
In data set [4] the test system is MCF‐7. Kind of data set: MTT cell viability assay, MCF‐7. The class given is cell-based, human. The note with it: Homo sapiens, MCF7, MTT. From the text:
(§1) MCF‐7, MDA‐MB‐231, and L‐929 mouse fibroblast cell lines were obtained from the American Type Culture Collection (ATCC, Manassas, Virginia, USA). MCF‐7 is a hormone‐responsive, differentiated mammary epithelium cell line with an ER+, PR+, and HER2‐ pattern (ATCC, HTB‐22). MDA‐MB‐231 is a triple‐negative differentiated mammary epithelium cell line (ATCC, HTB‐26). The L‐929 mouse fibroblast cell line is derived from the normal subcutaneous connective tissue of a mouse and is commonly used in cytotoxicity assays (ATCC, CCL‐1). All cell lines were cultured in DMEM medium (Dulbecco's Modified Eagle Medium, Gibco), supplemented with 10% fetal bovine serum (Gibco), 1% glutamine, and penicillin/streptomycin (Gibco) in a humidified atmosphere containing 5% CO2 at 37°C. Cell viability was tested using Trypan blue staining.
(§2) The MTT [3‐(4,5‐dimethylthiazol‐2‐yl)−2,5‐diphenyltetrazolium bromide] assay is a colorimetric assay for determining cell metabolic activity. In the MTT assay, the yellow dye MTT that dissolves in water is changed by mitochondrial reductase into a purple formazan that is non‐soluble. The water‐insoluble formazan produced is solubilized in a solubilization buffer, and absorbances are detected.
(§3) In 96‐well plates, the cells were cultivated at a density of 5 × 10^3 cells/well using 100 µL medium. […] 10 μL of the MTT labeling reagent (final concentration 0.5 mg/mL) were added to each well at the end of the incubation periods, and the wells were incubated for an additional 4 h. Next, each well received 100 μL of solubilization buffer (10% SDS in 0.01 M HCl) and was overnight incubated, and the absorbance of formazan products was evaluated at 550 nm using a multi‐mode microplate reader (Synergy H1, Biotech Instruments Inc., Vermont, USA). The results were normalized relative to the absorbances of calculated percent concentrations of DMSO. All tests involved three replicates with three independent experiments.
(§4) All statistical evaluations, including t‐tests and IC50 values, were calculated using the GraphPad Prism software tool (v6.0, GraphPad Software Inc., San Diego, USA). Statistical significance was defined as p ˂ 0.05 (*p < 0.05, **p < 0.01, ***p < 0.001, ****p < 0.0001).
(Tetrazolium dyes change colour on reduction, which living cells bring about.)

Data set [5] has as its system MDA‐MB‐231. Briefly: MTT cell viability assay, MDA‐MB‐231. As to conditions: Homo sapiens, MTT. In kind it is cell-based, human.
Description: as §1, §2, §3, §4

Data set [6] relates to L‐929 mouse fibroblast cell line. Kind of data set: MTT cell viability assay, L‐929 control fibroblasts. The class given is cell-based. As to conditions: Mus musculus.
Description: as §1, §2, §3, §4

Data set [7] concerns MCF‐7, MDA‐MB‐231, and L‐929. Kind of data set: MTT cell viability assay, statements over all cell lines. The class given is cell-based.
Description: as §1, §2, §3
All statistical evaluations, including t‐tests and IC50 values, were calculated using the GraphPad Prism software tool (v6.0, GraphPad Software Inc., San Diego, USA). […]

Data set [8] concerns MCF‐7. Briefly: Annexin V/PI staining, Tali image‐based cytometry, MCF‐7. In kind it is cell-based, human. The note with it: MCF‐7, 24 h. The source says:
(§5) To assess apoptosis and cell death, cells were stained with Annexin V‐PI dyes (Tali Apoptosis Kit‐Annexin V Alexa Fluor 488 and PI‐, Molecular Probes A10788, Invitrogen) and quantified using Tali Image‐Based Cytometer (Invitrogen) and fluorescence microscopy (Olympus CKX41 Inverted Phase Contrast Fluorescence Microscope furbished with reflected fluorescence illuminator CKX‐RFA).
(§6) To assess whether our compounds produce their cytotoxic effects through induction of apoptosis, apoptosis was investigated using Annexin V/PI labeling and MMP methods (Figures 4A−C). In addition, by utilizing TALI image‐based cytometry and fluorescent microscopy, the number of cells was analyzed for different concentrations of agents (Table 4).

Data set [9] relates to MDA‐MB‐231. Kind of data set: Annexin V/PI staining, Tali image‐based cytometry, MDA‐MB‐231. In kind it is cell-based, human. As to conditions: MDA‐MB‐231, 24 h.
Description: as §5, §6

Data set [10] deals with PGE2 release. Briefly: PGE2 ELISA, MCF‐7. In kind it is cell-based, human. As to conditions: MCF‐7, 0.5 mM, 24 h. As for the experimental part: (§7) PGE2 ELISA kit (ENZO, ADI‐900‐001) was used to determine prostaglandin synthesis levels. MCF‐7 and MDA‐MB‐231 breast cancer cells were cultured at a density of 1 × 10^6 cells/well in a 6‐well culture dish. […] Following 24 h of incubation, the medium was replaced with a fresh one, 10 µM arachidonic acid was added, and it was further incubated for 1 h. The PGE2 levels were determined according to the kit protocol.
(In an ELISA, binding on a coated surface is turned into a signal by an enzyme label.)

For data set [11], the system named is PGE2 release. Kind of data set: PGE2 ELISA, MDA‐MB‐231. In kind it is cell-based, human. As to conditions: MDA‐MB‐231, 0.5 mM, 24 h. On the procedure: as §7
In data set [12] the test system is MCF‐7, MDA‐MB‐231, and L‐929 cells. Briefly: Mitochondrial membrane potential (JC‐1) apoptosis assay, statements over all cell lines. In kind it is cell-based. As to conditions: MMP assay, similar levels for all cells including L‐929. On the procedure:
Apoptosis was also investigated by evaluating mitochondrial membrane potential changes (MMP assay). MCF‐7, MDA‐MB‐231, and L‐929 cells were stained with JC‐1 dye according to the manufacturer's protocols (JC‐1 MMP Assay Kit, KA1324, Abnova). The apoptotic to healthy cell ratio was calculated using absorbances collected from two different fluorescence channels (535/595 for healthy cells, 485/535 for apoptotic cells) (Synergy H1, Biotech Instruments Inc., Vermont, USA).

Another data set relates to Leukemia. Further details: method as in Nakamura et al. (2004) [60]. As to conditions: 72 h, ref Nakamura et al. (2004) [60]; cited from earlier work.
In the next data set the test system is SSC‐9 skin cancer. Details: method as in Abo Aasy et al. (2019) [62]. The note with it: 24 h, ref Abo Aasy et al. (2019) [62]; cited from earlier work.

Where two headings read alike, the source gives them in different places.

As for `Cc1ccc(-c2cc(C(F)(F)F)nn2-c2ccc(S(N)(=O)=O)cc2)cc1` [Celecoxib], the IC50 is 89 µM with MCF‐7 [1]; 40.1 µM in the data set on MCF‐7 [1] (listed as celecoxib); 40.1 µM with MDA‐MB‐231 [2]; 89 µM in the data set on MDA‐MB‐231 [2] (listed as celecoxib); 25 to 100 µM in data set [3].

`CCc1cccc2c3c([nH]c12)C(CC)(CC(=O)O)OCC3` (stereo not drawn) [Etodolac, 2‐(1,8‐diethyl‐1,3,4‐tetrahydropyrano [3,4‐b]indol‐1‐yl) acetic acid, reference compound]: the IC50 with MCF‐7 [4] (MCF‐7, 24 h) is 750 ± 4.2 µM; in the data set with MCF‐7 [4] (MCF‐7, 48 h), 731 ± 1.37 µM; in the data set on MCF‐7 [4] (MCF‐7, 72 h) it was 555 ± 2.42 µM; with MDA‐MB‐231 [5] (MDA-MB-231, 24 h, MDA‐MB‐231, 24 h), 740 ± 1.65 µM; in the data set on MDA‐MB‐231 [5] (MDA-MB-231, 48 h, MDA‐MB‐231, 48 h) it was 699 ± 4.61 µM; in the data set on MDA‐MB‐231 [5] (MDA-MB-231, 72 h, MDA‐MB‐231, 72 h), 578 ± 3.65 µM. For the same compound, the IC50 is 735 ± 3.7 µM in data set [6] (L929, 24 h, L‐929, 24 h); 751 ± 9.5 µM in data set [6] (L929, 48 h, L‐929, 48 h); 622 ± 4.7 µM in data set [6] (L929, 72 h, L‐929, 72 h); 500 to 1000 µM in [7] (read-out: IC50 range); 50 to 100 µM in the data set with Leukemia; 983 µM in the data set with SSC‐9 skin cancer. Also, in [7] (all cell lines including healthy controls), the “Concentration at which viability of the cells was reduced” value is given as 0.2−0.5 mM. The Apoptotic cells with MCF‐7 [8] (100 µM) is 1%; in the data set on MCF‐7 [8] (250 µM), 2%; in the data set on MCF‐7 [8] (500 µM) it was 7%; with MCF‐7 [8] (1000 µM), 5%; with MDA‐MB‐231 [9] (100 µM) it was 1%; with MDA‐MB‐231 [9] (250 µM), 1%. Besides, the Apoptotic cells in the data set with MDA‐MB‐231 [9] (500 µM) was 6%; with MDA‐MB‐231 [9] (1000 µM), 11%. The Dead cells in the data set on MCF‐7 [8] (100 µM) came to 5%; with MCF‐7 [8] (250 µM), 6%; with MCF‐7 [8] (500 µM) it was 9%; in the data set on MCF‐7 [8] (1000 µM), 8%; in the data set on MDA‐MB‐231 [9] (100 µM), 4%; with MDA‐MB‐231 [9] (250 µM), 5%. Besides, the Dead cells in the data set with MDA‐MB‐231 [9] (500 µM) was 10%; with MDA‐MB‐231 [9] (1000 µM), 13%. Moreover, the Live cells is given as 94% in the data set with MCF‐7 [8] (100 µM); 92% with MCF‐7 [8] (250 µM); 84% in the data set with MCF‐7 [8] (500 µM); 87% in the data set on MCF‐7 [8] (1000 µM); 95% with MDA‐MB‐231 [9] (100 µM); 94% with MDA‐MB‐231 [9] (250 µM). Further, the Live cells is 84% in the data set on MDA‐MB‐231 [9] (500 µM) and 76% in the data set with MDA‐MB‐231 [9] (1000 µM). The “Inhibition of PGE2 release” value in the data set on PGE2 release [10] is reported as 57%; in the data set on PGE2 release [11], 38%. Also, in data set [12], the “Concentration after which apoptotic increases became detectable” value is 0.5−1.0 mM.
